Structures can show the parent of a compound that is named as a salt.
Molecular target: kinase domain of IRE1 alpha (His-tagged kinase dead construct KR, AA G547-L977, D688N) (Homo sapiens (Human), UniProt O75460, D688N)
Experiment: IRE1α TR-FRET competition binding assay
Details: competition with Kinase Tracer 236, 0.1 μM; one hour at room temperature
Procedure: To determine the affinity of compound binding to the kinase domain of IRE1 alpha, a Time Resolved Fluorescence Resonance Energy Transfer (TR-FRET) competition assay was used. A His-tagged IRE1 alpha kinase dead construct containing the kinase and RNase domains (KR, AA G547-L977, D688N) was expressed in Sf9 insect cells. The purified protein (final concentration 0.006 μM micromolar) was pre-incubated with anti-His Europium labeled antibody (Life Technologies PV5596, final concentration 0.002 μM micromolar) for one hour at 4° C. in 1X TR-FRET Assay Buffer (50 mM HEPES, pH 7.5.10 mM MgCl2, 0.083 mM Brij 35, 1 mM DTT, and 0.1% bovine gamma globulin) prior to addition to test compounds. A fluorescent labeled probe based on an ATP competitive inhibitor (Kinase Tracer 236, Life Technologies PV5592) is added to a final concentration of 0.1 μM (micromolar). Reactions were carried out for one hour at room temperature in a final volume of 20 μL (microliter) in 384 well white ProxiPlates (Perkin Elmer 6008289). Binding of the tracer to the IRE1 protein alpha was detected in an Envision instrument (PerkinElmer) equipped with a TRF laser option and a LANCE/Delfia Dual/Bias D400/D630 mirror (Ex 347 nm, 1st Em 665 nm, 2nd Em 615 nm).
Exemplary compounds in Table A1 were tested in the IRE1α binding assays.

Chain of kinase domain of IRE1 alpha (His-tagged kinase dead construct KR, AA G547-L977, D688N) (O75460 547-977 D688N): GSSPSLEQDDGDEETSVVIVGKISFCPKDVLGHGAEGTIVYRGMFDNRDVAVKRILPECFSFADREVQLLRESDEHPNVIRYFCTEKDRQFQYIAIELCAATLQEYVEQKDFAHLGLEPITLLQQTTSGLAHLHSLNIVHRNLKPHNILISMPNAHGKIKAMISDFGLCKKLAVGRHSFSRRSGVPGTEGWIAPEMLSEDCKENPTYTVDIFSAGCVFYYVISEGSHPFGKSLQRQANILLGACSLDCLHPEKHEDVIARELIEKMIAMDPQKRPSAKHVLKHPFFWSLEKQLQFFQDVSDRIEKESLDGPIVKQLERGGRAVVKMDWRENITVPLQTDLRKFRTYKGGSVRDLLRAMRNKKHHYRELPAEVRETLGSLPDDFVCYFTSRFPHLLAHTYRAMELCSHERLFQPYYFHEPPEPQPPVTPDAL

`CC(F)(F)C1CNCC(Nc2nccc(-c3cccnc3Oc3cc(F)c(NS(=O)(=O)Cc4ccccc4)c(F)c3F)n2)C1` (racemic) [Compound 337, N-(4-((3-(2-((5-(1,1-Difluoroethyl)piperidin-3-yl)amino)pyrimidin-4-yl)pyridin-2-yl)oxy)-2,3,6-trifluorophenyl)-1-phenylmethanesulfonamide hydrochloride] was tested. Which IC50 did it give?
The IC50 was 8.9 nM.

Which IC50 does the source give for `O=C(Nc1ccc(Oc2ncccc2-c2ccnc(N[C@H]3CCCNC3)n2)c(F)c1F)C1CC12CC2` (single isomer, unassigned) [Compound 150, hydrochloride] here?
The IC50 was 300 nM.

For `O=S(=O)(Cc1ccccc1)Nc1ccc(Oc2ncccc2-c2ccnc(NC34CNCC3C4)n2)c(F)c1F` (single isomer, unassigned) [Compound 185, N-(4-((3-(2-(3-Azabicyclo[3.1.0]hexan-5-ylamino)pyrimidin-4-yl)-2-pyridyl)oxy)-2,3-difluoro-phenyl)-1-phenyl-methanesulfonamide], which IC50 is on record?
Its IC50 is 9.4 nM.

How did the IC50 turn out when `O=S(=O)(Cc1ccccc1)Nc1ccc(Oc2ncccc2-c2ccnc(NC34CNCC3C4)n2)c(F)c1F` (single isomer, unassigned) [Compound 186, N-(4-((3-(2-(3-Azabicyclo[3.1.0]hexan-5-ylamino)pyrimidin-4-yl)-2-pyridyl)oxy)-2,3-difluoro-phenyl)-1-phenyl-methanesulfonamide] was run?
Its IC50 is 20 nM.

For `O=S(=O)(Cc1ccccc1)Nc1c(F)cc(Oc2ncccc2-c2ccnc(CC3CCCNC3)n2)c(F)c1F` (single isomer, unassigned) [Compound 198, 1-Phenyl-N-(2,3,6-trifluoro-4-((3-(2-(3-piperidylmethyl)pyrimidin-4-yl)-2-pyridyl)oxy)phenyl)methanesulfonamide], which IC50 is on record?
The IC50 was 1300 nM.

`O=S(=O)(Cc1ccccc1)Nc1c(F)cc(Oc2ncccc2-c2ccnc(CC3CCCNC3)n2)c(F)c1F` (single isomer, unassigned) [Compound 199, 1-Phenyl-N-(2,3,6-trifluoro-4-((3-(2-(3-piperidylmethyl)pyrimidin-4-yl)-2-pyridyl)oxy)phenyl)methanesulfonamide] was tested. Which IC50 did it give?
Its IC50 is 110 nM.

Which IC50 does the source give for `OC(CNc1cccc(Oc2ncccc2-c2ccnc(N[C@H]3CCCNC3)n2)c1F)C(F)(F)F` (single isomer, unassigned) [Compound 200] here?
The IC50 was 530 nM.

Which IC50 does the source give for `OC(CNc1cccc(Oc2ncccc2-c2ccnc(N[C@H]3CCCNC3)n2)c1F)C(F)(F)F` (single isomer, unassigned) [Compound 201] here?
The IC50 was 210 nM.

With `CCC1CCN(c2ccc(Oc3ncccc3-c3ccnc(N[C@H]4CCCNC4)n3)c(F)c2F)C1=O` (single isomer, unassigned) [Compound 248] as the compound, how does the IC50 read?
Its IC50 is 45 nM.

`CCC1CCN(c2ccc(Oc3ncccc3-c3ccnc(N[C@H]4CCCNC4)n3)c(F)c2F)C1=O` (single isomer, unassigned) [Compound 249] was tested. Which IC50 did it give?
The IC50 was 160 nM.

`O=S(=O)(CC1CCC1(F)F)Nc1c(F)cc(Oc2ncccc2-c2ccnc(N[C@@H]3CNC[C@@H](F)C3)n2)c(F)c1F` (single isomer, unassigned) [Compound 264] was tested. Which IC50 did it give?
The IC50 was 1.6 nM.

How did the IC50 turn out when `O=S(=O)(CC1CCC1(F)F)Nc1c(F)cc(Oc2ncccc2-c2ccnc(N[C@@H]3CNC[C@@H](F)C3)n2)c(F)c1F` (single isomer, unassigned) [Compound 265] was run?
Its IC50 is 1.4 nM.

With `O=S(=O)(Cc1ccccc1)Nc1c(F)cc(Oc2ncccc2-c2ccnc(NC3CNCC(CF)C3)n2)c(F)c1F` (single isomer, unassigned) [Compound 277, 1-Phenyl-N-(2,3,6-trifluoro-4-((3-(2-((5-(fluoromethyl)piperidin-3-yl)amino)pyrimidin-4-yl)pyridin-2-yl)oxy)phenyl)methanesulfonamide] as the compound, how does the IC50 read?
Its IC50 is 27 nM.

`O=S(=O)(Cc1ccccc1)Nc1c(F)cc(Oc2ncccc2-c2ccnc(NC3CNCC(CF)C3)n2)c(F)c1F` (single isomer, unassigned) [Compound 278, 1-Phenyl-N-(2,3,6-trifluoro-4-((3-(2-((5-(fluoromethyl)piperidin-3-yl)amino)pyrimidin-4-yl)pyridin-2-yl)oxy)phenyl)methanesulfonamide] was tested. Which IC50 did it give?
The IC50 was 0.78 nM.

For `O=S(=O)(Cc1ccccc1)Nc1c(F)cc(Oc2ncccc2-c2ccnc(NC3CC4CCCN(C4)C3)n2)c(F)c1F` (single isomer, unassigned) [Compound 287, N-(4-((3-(2-((1-azabicyclo[3.3.1]nonan-3-yl)amino)pyrimidin-4-yl)pyridin-2-yl)oxy)-2,3,6-trifluorophenyl)-1-phenylmethanesulfonamide hydrochloride], which IC50 is on record?
Its IC50 is 1.5 nM.

With `O=S(=O)(Cc1ccccc1)Nc1c(F)cc(Oc2ncccc2-c2ccnc(NC3CC4CCCN(C4)C3)n2)c(F)c1F` (single isomer, unassigned) [Compound 288, N-(4-((3-(2-((1-azabicyclo[3.3.1]nonan-3-yl)amino)pyrimidin-4-yl)pyridin-2-yl)oxy)-2,3,6-trifluorophenyl)-1-phenylmethanesulfonamide] as the compound, how does the IC50 read?
Its IC50 is 1.1 nM.

With `CC1(CF)CNCC(Nc2nccc(-c3cccnc3Oc3cc(F)c(NS(=O)(=O)Cc4ccccc4)c(F)c3F)n2)C1` (single isomer, unassigned) [Compound 294, 1-Phenyl-N-(2,3,6-trifluoro-4-((3-(2-((5-(fluoromethyl)-5-methylpiperidin-3-yl)amino)pyrimidin-4-yl)pyridin-2-yl)oxy)phenyl)methanesulfonamide] as the compound, how does the IC50 read?
Its IC50 is 0.59 nM.

For `CC1(CF)CNCC(Nc2nccc(-c3cccnc3Oc3cc(F)c(NS(=O)(=O)Cc4ccccc4)c(F)c3F)n2)C1` (single isomer, unassigned) [Compound 295, 1-Phenyl-N-(2,3,6-trifluoro-4-((3-(2-((5-(fluoromethyl)-5-methylpiperidin-3-yl)amino)pyrimidin-4-yl)pyridin-2-yl)oxy)phenyl)methanesulfonamide], which IC50 is on record?
Its IC50 is 41 nM.

`O=S(=O)(Cc1ccccc1)Nc1c(F)cc(Oc2ncccc2-c2ccnc(NC3CNCC4(C3)CC4(F)F)n2)c(F)c1F` (single isomer, unassigned) [Compound 298, N-(4-((3-(2-((1,1-Difluoro-5-azaspiro[2.5]octan-7-yl)amino)pyrimidin-4-yl)pyridin-2-yl)oxy)-2,3,6-trifluorophenyl)-1-phenylmethanesulfonamide] was tested. Which IC50 did it give?
Its IC50 is 1.8 nM.

`O=S(=O)(Cc1ccccc1)Nc1c(F)cc(Oc2ncccc2-c2ccnc(NC3CNCC4(C3)CC4(F)F)n2)c(F)c1F` (single isomer, unassigned) [Compound 299, N-(4-((3-(2-((1,1-Difluoro-5-azaspiro[2.5]octan-7-yl)amino)pyrimidin-4-yl)pyridin-2-yl)oxy)-2,3,6-trifluorophenyl)-1-phenylmethanesulfonamide] was tested. Which IC50 did it give?
Its IC50 is 0.38 nM.

With `O=S(=O)(Cc1ccccc1)Nc1c(F)cc(Oc2ncccc2-c2ccnc(NC3CNCC4(C3)CC4(F)F)n2)c(F)c1F` (single isomer, unassigned) [Compound 300, N-(4-((3-(2-((1,1-Difluoro-5-azaspiro[2.5]octan-7-yl)amino)pyrimidin-4-yl)pyridin-2-yl)oxy)-2,3,6-trifluorophenyl)-1-phenylmethanesulfonamide] as the compound, how does the IC50 read?
The IC50 was 8.7 nM.

With `O=S(=O)(Cc1ccccc1)Nc1c(F)cc(Oc2ncccc2-c2ccnc(NC3CNCC4(C3)CC4(F)F)n2)c(F)c1F` (single isomer, unassigned) [Compound 301, N-(4-((3-(2-((1,1-Difluoro-5-azaspiro[2.5]octan-7-yl)amino)pyrimidin-4-yl)pyridin-2-yl)oxy)-2,3,6-trifluorophenyl)-1-phenylmethanesulfonamide] as the compound, how does the IC50 read?
Its IC50 is 0.36 nM.

— patent publication US12071425B2 (Genentech, Inc., priority 2018, dated 2024)
